Experimental data published in PMC2714422 (Journal of medicinal chemistry, 2009).
“Also recorded” adds a separate entry of the source.

Key:
[1] = hydrochloride salt form of 5; prior formulation work, ref not given; cited from earlier work
[2] = test system: squamous cell carcinoma (SCC) tumors; experiment: K6/ODC transgenic mouse squamous cell carcinoma model; assay type: in vivo
SK-Mel cells = experiment: Cellular polyamine levels in SK-Mel cells, compound alone; assay type: cell-based, human; details: 10 µM for 24 hrs
MDA-MB-231 cells = experiment: Cellular polyamine depletion, PTI plus DFMO; assay type: cell-based, human; details: 5 days, 30 µM 5 or 0.1 µM 11 with 5.0 mM DFMO, 0.5 µM spermidine, 1.0 mM aminoguanidine
[3] = DFMO 0.5% in drinking water + 0.5 mg/kg 11 i.p. twice daily, 4 weeks

NCCCC[C@@H](N)C(=O)NCCCNCCCCNCCCN [Compound 5, D-Lys-Spm]
oral bioavailability, hydrochloride salt form [1]: < 1%

NCCC[C@](N)(C(=O)O)C(F)F [DFMO, α-difluoromethylornithine, reference compound]
tumor growth effect of DFMO alone ([2]; DFMO alone in drinking water): moderate tumor growth inhibitory effects; also recorded: weak effect | DFMO alone treated tumors that re-grew ([2]; DFMO alone, 6 weeks off-treatment after 4 week treatment): 11 of 12

CCCCCCCCCCCCCCCC(=O)NCCCC[C@H](N)C(=O)NCCCNCCCCNCCCN [Compound 10, L-Lys-ε-(palmitoyl)-N^1-spermine]
level of cellular polyamines, compound added alone (SK-Mel cells): none of these agents influenced the level of cellular polyamines

CCCCCCCC(=O)NCCCC[C@H](N)C(=O)NCCCNCCCCNCCCN [Compound 8]
level of cellular polyamines, compound added alone (SK-Mel cells): none of these agents influenced the level of cellular polyamines

CCCCCCCCCCCCCCCC(=O)NCCCC[C@@H](N)C(=O)NCCCNCCCCNCCCN [Compound 11, D-Lys-ε-(palmitoyl)-N^1-spermine]
polyamine levels of the cell, combination with DFMO (MDA-MB-231 cells): potent reduction in the polyamine levels | toxicity at efficacious dose level ([2]; 11 at 0.5 mg/kg i.p. twice daily with DFMO, mice): no apparent toxicity | SCCs with complete or near-complete responses (>95% volume reduction) [2, 3]: 71% | number of SCCs with complete responses out of 17 [2, 3]: 9
